Results as given in ChEMBL document CHEMBL1201862, “PubChem BioAssay data set” (2004).
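The compound was tested at five concentrations on cells cultured in 96-well plates, with a 48-hour exposure period. Abbreviation: GI50, concentration required for 50% inhibition of growth.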 The source made the active and inactive calls. Rule as the data show it: active = GI50 up to about 1.1 µM and inactive = higher.

Key:
Experiment in all cases: growth of human tumour cells (NCI), 48 h
A498 = system: A498
A549 = system: A549
BT-549 = system: BT-549
CCRF-CEM = system: CCRF-CEM
COLO 205 = system: COLO 205
EKVX = system: EKVX
HL-60 = system: HL-60
HT-29 = system: HT-29
K562 = system: K562
KM12 = system: KM12
MCF7 = system: MCF7
MOLT-4 = system: MOLT-4
NCI-H460 = system: NCI-H460
RPMI-8226 = system: RPMI-8226
SK-OV-3 = system: SK-OV-3
SN12C = system: SN12C
SNB-75 = system: SNB-75
SR = system: SR
U-251 = system: U-251

Measured: GI50

NNC(=O)c1ccccc1NC(=O)/C(=C/c1ccccc1O)NC(=O)c1ccccc1
inactive: A498 94.6 µM | A549 > 100 µM | BT-549 31.8 µM | CCRF-CEM > 100 µM | COLO 205 > 100 µM | EKVX 33.6 µM | HL-60 > 100 µM | HT-29 > 100 µM | K562 > 100 µM | KM12 5.62 µM | MCF7 5.07 µM | MOLT-4 > 100 µM | NCI-H460 22.8 µM | RPMI-8226 > 100 µM | SK-OV-3 39.7 µM | SN12C 28 µM | SNB-75 11.6 µM | U-251 33.6 µM
active: SR 0.0156 µM

CCCCCCCCCCCCCCCCNc1ccn(C2CC(O)C(COC(c3ccccc3)(c3ccccc3)c3ccc(OC)cc3)O2)c(=O)n1 (centres undefined)
inactive: A498 > 100 µM | A549 > 100 µM | BT-549 > 100 µM | CCRF-CEM 67.8 µM | COLO 205 > 100 µM | EKVX > 100 µM | HL-60 > 100 µM | HT-29 > 100 µM | K562 > 100 µM | KM12 > 100 µM | MCF7 > 100 µM | MOLT-4 49.3 µM | NCI-H460 > 100 µM | RPMI-8226 > 100 µM | SK-OV-3 > 100 µM | SN12C > 100 µM | SNB-75 > 100 µM | SR 98.4 µM | U-251 64.1 µM

COc1cc(-c2oc3ccccc3c(=O)c2O)cc(OC)c1OC
inactive: A498 22 µM | A549 9.02 µM | BT-549 > 55.2 µM | CCRF-CEM 3.32 µM | COLO 205 73.3 µM | EKVX 25.3 µM | HL-60 7.08 µM | HT-29 > 74.8 µM | K562 6.71 µM | KM12 > 100 µM | MCF7 > 100 µM | MOLT-4 4.72 µM | NCI-H460 4.19 µM | RPMI-8226 3.43 µM | SK-OV-3 43.4 µM | SN12C > 100 µM | SNB-75 6.82 µM | SR 3.03 µM | U-251 8.77 µM

COc1ccc(NC2Oc3cc4c(cc3C(c3cc(OC)c(OC)c(OC)c3)C2C)OCO4)cc1 (centres undefined)
active: A498 0.316 µM | A549 0.685 µM | BT-549 1.04 µM | CCRF-CEM 0.944 µM | COLO 205 0.386 µM | HL-60 0.248 µM | HT-29 0.365 µM | K562 0.223 µM | KM12 0.381 µM | MCF7 0.394 µM | MOLT-4 0.422 µM | NCI-H460 0.429 µM | RPMI-8226 0.525 µM | SK-OV-3 0.948 µM | SN12C 0.541 µM | SNB-75 0.301 µM | SR 0.352 µM | U-251 0.379 µM
inactive: EKVX 3.56 µM

C=C(CCOC)CCC1CCCCC(CN(C)C)C1=O (centres undefined)
inactive: A498 > 100 µM | A549 > 100 µM | BT-549 > 100 µM | CCRF-CEM > 100 µM | COLO 205 > 100 µM | EKVX > 100 µM | HL-60 > 100 µM | HT-29 > 100 µM | K562 > 100 µM | KM12 > 100 µM | MCF7 > 100 µM | MOLT-4 > 100 µM | NCI-H460 > 100 µM | RPMI-8226 > 100 µM | SK-OV-3 > 100 µM | SN12C > 100 µM | SNB-75 > 100 µM | SR > 100 µM | U-251 > 100 µM

COC(=O)c1nc(-c2nc(CCNC(=O)OC(C)(C)C)sc2Cl)sc1Cl
inactive: A498 94.6 µM | A549 > 100 µM | BT-549 34.5 µM | CCRF-CEM 32.2 µM | COLO 205 98.4 µM | EKVX > 100 µM | HL-60 71.9 µM | HT-29 > 100 µM | K562 36.7 µM | KM12 55.3 µM | MCF7 52 µM | MOLT-4 23.8 µM | NCI-H460 > 100 µM | RPMI-8226 41.1 µM | SK-OV-3 > 100 µM | SN12C > 10 µM | SNB-75 23.1 µM | SR 35.2 µM | U-251 > 100 µM

Cn1c(-c2cccs2)cc(-c2cccs2)c1-c1cccs1
inactive: A498 > 100 µM | A549 > 96.6 µM | BT-549 > 100 µM | CCRF-CEM 67 µM | COLO 205 8.95 µM | EKVX 39.2 µM | HL-60 33 µM | HT-29 > 100 µM | K562 51.8 µM | KM12 35.7 µM | MCF7 2.82 µM | MOLT-4 38.5 µM | NCI-H460 78.7 µM | RPMI-8226 20.4 µM | SK-OV-3 > 100 µM | SN12C > 100 µM | SNB-75 53.3 µM | SR 13.6 µM | U-251 > 79.3 µM

OCCCCCNc1cc(O)nc(O)n1
inactive: A498 > 100 µM | A549 > 100 µM | BT-549 > 100 µM | CCRF-CEM > 100 µM | COLO 205 > 100 µM | EKVX > 100 µM | HL-60 > 100 µM | HT-29 > 100 µM | K562 > 100 µM | KM12 > 100 µM | MCF7 > 100 µM | MOLT-4 > 100 µM | NCI-H460 > 100 µM | RPMI-8226 > 100 µM | SK-OV-3 > 100 µM | SN12C > 100 µM | SNB-75 > 100 µM | SR > 100 µM | U-251 > 100 µM

CCc1nc(N)nc(N)c1-c1ccc(N2CCNCC2)c([N+](=O)[O-])c1
active: K562 0.718 µM
inactive: A498 39.7 µM | A549 3.09 µM | BT-549 45.9 µM | CCRF-CEM 4.74 µM | COLO 205 15.3 µM | EKVX 23.8 µM | HL-60 4.59 µM | HT-29 4.47 µM | KM12 12 µM | MCF7 12.4 µM | MOLT-4 5.65 µM | NCI-H460 2.11 µM | RPMI-8226 29.5 µM | SK-OV-3 91.2 µM | SN12C 22 µM | SNB-75 36.6 µM | SR 4.35 µM | U-251 6.03 µM

COc1cc(/C=C/C(=N\NC(=S)NN)c2sc(NNC(C)=O)nc2C)ccc1O
inactive: A498 > 100 µM | A549 > 100 µM | BT-549 > 100 µM | CCRF-CEM > 100 µM | COLO 205 > 100 µM | EKVX > 100 µM | HL-60 > 100 µM | HT-29 > 100 µM | K562 > 100 µM | KM12 66.2 µM | MCF7 > 100 µM | MOLT-4 > 100 µM | NCI-H460 > 100 µM | RPMI-8226 > 100 µM | SK-OV-3 > 100 µM | SN12C > 100 µM | SNB-75 > 100 µM | SR > 100 µM | U-251 > 100 µM

O=c1n(-c2ccccc2)c(=O)n2n1C1CCC2CC1
inactive: A498 > 100 µM | A549 > 100 µM | BT-549 > 100 µM | CCRF-CEM > 100 µM | COLO 205 > 100 µM | EKVX > 100 µM | HL-60 > 100 µM | HT-29 > 100 µM | K562 > 100 µM | KM12 > 100 µM | MCF7 > 100 µM | MOLT-4 > 100 µM | NCI-H460 > 100 µM | RPMI-8226 > 100 µM | SK-OV-3 > 100 µM | SN12C > 100 µM | SNB-75 > 100 µM | SR > 100 µM | U-251 > 100 µM
